Legend:
Type in all cases: cell-based, human
[1] = test system: MCF-7 cells; assay: DAPI staining, confocal microscopy (apoptosis); conditions: growing cells treated; 100 μM (FIG. 17)
Experimental: (§1) OdDHL induces apoptosis of BC cells (a) MCF-7 cells were cultured in full medium alone or in the presence of 1001M OdDHL or 100 μM OHHL. […] Left-hand panels show DAPI, right-hand panels show the corresponding phase contrast and middle panels the image overlays. (b) MDA-MB-468 cells were cultured in full medium alone or in the presence of 100 μM OdDHL or 100 μM OHHL. After 18 hours cells were fixed, stained and examined as in (a). (c) BR293, MCF-7 and MDA-MD-468 cells were cultured in full medium alone (lanes 1, 3, 5) or in the presence of 100 μM OdDHL (lanes 2, 4, 6) or 400 μM etoposide (lane 7). After 18 hours cells were lysed and analysed for PARP cleavage by Western blotting with an anti-PARP antibody. Full length PARP is labelled and the lower arrow indicates the major caspase cleavage fragment.

[2] = test system: STAT1 and 3; assay: STAT complex formation in serum-starved cells treated with AHL alone (EMSA); conditions: serum-starved BR293 cells; up to 2 h
Excerpt: Cells were lysed and the DNA-binding activity of STAT1 and 3 was examined by EMSA.

[3] = test system: MDA-MB-468 cells; assay: DAPI staining, confocal microscopy (apoptosis); conditions: growing cells treated; 100 μM (FIG. 17)
Experimental: as §1, with “After 18 hours cells were fixed, stained and examined as in (a).” left out

[4] = test system: p38^MAPK; assay: p38 MAPK phosphorylation in anisomycin-treated cells (Western blotting); conditions: BR293 cells treated with anisomycin
Experimental: ERKs are unaffected by OdDHL (a) BR293 cells were serum-starved (lane 1) or starved and stimulated with TPA for 30 min alone (lane 2) or in the presence of increasing concentrations of OdDHL (lanes 3-6) or 100 μM OHHL (lane 7). Cell lysates were prepared and analysed by Western blotting for ERK phosphorylation with an antibody specific for phospho-ERK½ (upper panel) and for ERK content with an antibody against ERKs (lower panel). (b) BR293 cells were serum-starved (lane 1) or starved and stimulated with Anisomycin for 30 min alone (lane 2) or in the presence of increasing concentrations of OdDHL (lanes 3-6) or 100 μM OHHL (lane 7). Cell lysates were prepared and analysed by Western blotting for JNK/SAPK phosphorylation with an antibody specific for phospho-JNKs (upper panel) and for SAPK/JNK content with an antibody against JNKs (lower panel). (c) BR293 cells were treated as described in (b) and lysates were analysed by Western blotting for p38^MAPK phosphorylation with an antibody specific for phospho-p38 (upper panel) and for p38 content with an antibody against p38 (lower panel).

[5] = test system: MCF-10F cells; assay: Cell proliferation assay (cell counting); conditions: non-tumorigenic breast epithelial cells; 48 hours
Experimental: Breast cancer cell lines (BR293, MCF-7 and MDA-MB-468) were maintained in Minimum Essential Medium Eagle (MEM, Sigma) supplemented with 10% foetal calf serum (FCS), 1% MEM non-essential amino acids, 1% glutamine and 1% penicillin-streptomycin at 37° C. under 5% CO2. […] These cell lines are well-known, and widely available to persons in the field. In particular, the following lines are deposited with the American Type Culture Collection (ATTC) with the following identifying codes:
(§2) Equal numbers of BR293, MCF-10F, MCF-7, MDA-MB-468, HKEK293 and COS1 cells were seeded in the appropriate growth medium into 10 cm dishes. Cells were allowed to grow in the presence of various concentrations of OdDHL or OHHL for 24 or 48 hours. For the 48-hour time points, fresh medium containing the appropriate inhibitor was applied to the cells after 24 hours. Controls were allowed to grow for 48 hours in the absence of inhibitor. Thereafter, all the cells were washed twice with ice cold PBS, harvested and counted under a phase-contrast microscope. Values are expressed as averages ±S.D. (n=3).

[6] = test system: MDA-MB-468 cells; assay: Cell proliferation assay (cell counting); conditions: over a 48-hour period
Experimental: Equal numbers of BR293 and MDA-MB-468 cells were seeded in MEM containing 10% FCS into 10 cm dishes. […]. For the 48 time points, fresh medium containing the appropriate inhibitor was applied to the cells after 24 hours. Controls were allowed to grow for 48 hours in the absence of inhibitor. Thereafter, all the cells were washed twice with ice cold PBS, harvested and counted under a phase-contrast microscope. Values are expressed as averages+S.D. (n=3).
as §2

[7] = test system: poly ADP-ribose polymerase (PARP); assay: PARP cleavage by Western blotting; conditions: 100 μM, 18 hours
Experimental: OdDHL induces apoptosis of BC cells (a) MCF-7 cells were cultured in full medium alone or in the presence of 1001M OdDHL or 100 μM OHHL. After 18 hours cells were fixed, stained with DAPI and examined by confocal microscopy. Left-hand panels show DAPI, right-hand panels show the corresponding phase contrast and middle panels the image overlays. (b) MDA-MB-468 cells were cultured in full medium alone or in the presence of 100 μM OdDHL or 100 μM OHHL. After 18 hours cells were fixed, stained and examined as in (a). (c) BR293, MCF-7 and MDA-MD-468 cells were cultured in full medium alone (lanes 1, 3, 5) or in the presence of 100 μM OdDHL (lanes 2, 4, 6) or 400 μM etoposide (lane 7). After 18 hours cells were lysed and analysed for PARP cleavage by Western blotting with an anti-PARP antibody. Full length PARP is labelled and the lower arrow indicates the major caspase cleavage fragment.

[8] = test system: HEK293 cells; assay: Cell proliferation assay (cell counting); conditions: cells with constitutive STAT3 activity; 48 hours
Experimental: as §2

[9] = test system: MCF-7 cells; assay: Cell proliferation assay (cell counting); conditions: over a 48-hour period
Experimental: as §2

SMILES	nuclear integrity by DAPI staining [1]	STAT complex formation by AHL alone [2]	nuclear integrity by DAPI staining [3]	p38^MAPK phosphorylation [4]	effect on proliferation [5]	inhibition of proliferation [6]	PARP cleavage ([7]; BR293 cells)	PARP cleavage ([7]; MCF-7 cells)	PARP cleavage ([7]; MDA-MB-468 cells, compared with 400 μM etoposide)	growth sensitivity to treatment [8]	inhibition of proliferation [9]
CCCC(=O)CC(=O)N[C@H]1CCOC1=O [OHHL, N-(3-oxohexanoyl)-L-homoserine lactone, reference compound]	unaffected	did not induce STAT complex formation	unaffected								
CCCCCCCCCC(=O)CC(=O)N[C@H]1CCOC1=O [OdDHL, N-(3-oxo-dodecanoyl)-L-homoserine lactone]	nuclear disruption	did not induce STAT complex formation	nuclear disruption	modest but reproducible inhibition	slight	70%-80%	characteristic cleavage fragment was detected	induced PARP cleavage	to the same extent as etoposide	sensitive	70%-80%

Reference: patent US20040259942A1, “Modulation of stat activity” (priority 2001, published 2004)
